Data reported in PMC9668969 (Nature Communications, 2022).
Values joined by “and” are separate entries in the source; they are usually repeats but may differ in a detail not shown here. Identical values can stand only once.

Tested on: WT ELIC
Test: Tryptophan stopped-flow fluorescence measurements (rapid mixing with agonist, DDM)
Assay type: biochemical, Erwinia chrysanthemi
Conditions: for Normalized change in TRP fluorescence: single experiments
Experimental: To measure the tryptophan (Trp) fluorescence emission of ELIC, WT or W206F ELIC was diluted to 3 ml (0.02 mg/ml) and an emission spectrum was collected in a quartz fluorescence cell using a Fluoromax Plus Spectrofluorometer (Horiba Scientific). Excitation was set at 295 nm and an emission spectrum was collected from 320 to 380 nm. Trp fluorescence measurements with rapid mixing of agonist was carried out using the SX20 stopped-flow spectrofluorometer, outfitted with a 295 nm LED excitation source. Purified ELIC was diluted to 0.1 mg/ml in Trp Stopped-flow Buffer A (10 mM Tris pH 7.5, 100 mM NaCl, 0.05% DDM). A single mixing experiment was performed by mixing ELIC with equal volumes of Buffer A + propylamine. Propylamine was prepared at varying concentrations at 2x the final concentration. The instrument dead time was ~1 ms, enabling capture of most of the time course of change in Trp fluorescence. The time course of decrease in Trp fluorescence after rapid mixing with propylamine was fit to a single exponential to obtain a time constant for the rate of decrease and a measure of the extent of decrease. All replicates were taken from distinct samples.

CCCN [propylamine]
time constant of TRP fluorescence decrease (10 mM propylamine, DDM): 9.9 ± 0.6 ms | Normalized change in TRP fluorescence, Average (DDM, Propylamine 0.3 mM): 0.01079 | Normalized change in TRP fluorescence, Average (DDM, Propylamine 1 mM): 0.08703 | Normalized change in TRP fluorescence, Average (DDM, Propylamine 3 mM): 0.49 | Normalized change in TRP fluorescence (DDM, Propylamine 3 mM): 0.3909 and 0.6901 and 0.389 | Normalized change in TRP fluorescence, Average (DDM, Propylamine 10 mM): 0.7765 | Normalized change in TRP fluorescence (DDM, Propylamine 10 mM): 0.6381 and 0.8944 and 0.797 | Normalized change in TRP fluorescence, Average (DDM, Propylamine 30 mM): 0.9154 | Normalized change in TRP fluorescence (DDM, Propylamine 30 mM): 0.9392 and 0.8561 and 0.951 | Normalized change in TRP fluorescence, Average (DDM, Propylamine 100 mM): 1 | Normalized change in TRP fluorescence (DDM, Propylamine 100 mM): 1 | Hill n of normalized change in TRP fluorescence (ELIC in DDM): 1.6 ± 0.3 | EC50 (ELIC in DDM, Hill fit, read-out: EC50 of normalized change in TRP fluorescence): 4.3 ± 0.8 mM | rate of decrease in tryptophan fluorescence relative to channel opening (fold faster) (vs Tl+ flux in 2:1:1 or POPC liposomes): 2–4 ×
